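Compound exposure: 48 hours, 5 concentrations, 96-well plates. TGI: total growth inhibition.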
What was measured:
Test in all cases: inhibition of tumour cell growth, NCI panel, 48 h
SW-620 colon = tested on: SW-620 colon
MDA-MB-435 = tested on: MDA-MB-435
KM12 colon = tested on: KM12 colon
SF-539 CNS = tested on: SF-539 CNS
MDA-MB-231 breast = tested on: MDA-MB-231 breast
OVCAR-3 ovarian = tested on: OVCAR-3 ovarian
HOP-62 NSCLC = tested on: HOP-62 NSCLC
OVCAR-8 ovarian = tested on: OVCAR-8 ovarian
MOLT-4 leukemia = tested on: MOLT-4 leukemia
PC-3 prostate = tested on: PC-3 prostate
UACC-62 melanoma = tested on: UACC-62 melanoma
NCI-H226 lung = tested on: NCI-H226 lung
HCC-2998 colon = tested on: HCC-2998 colon
786-0 renal = tested on: 786-0 renal
MALME-3M melanoma = tested on: MALME-3M melanoma
NCI/ADR-RES ovarian = tested on: NCI/ADR-RES ovarian
K-562 leukemia = tested on: K-562 leukemia
MCF7 breast = tested on: MCF7 breast
UACC-257 melanoma = tested on: UACC-257 melanoma
SF-268 CNS = tested on: SF-268 CNS
NCI-H23 lung = tested on: NCI-H23 lung
SNB-19 CNS = tested on: SNB-19 CNS
CCRF-CEM leukemia = tested on: CCRF-CEM leukemia
OVCAR-5 ovarian = tested on: OVCAR-5 ovarian
M14 melanoma = tested on: M14 melanoma
HT29 colon = tested on: HT29 colon
BT-549 breast = tested on: BT-549 breast
A498 renal = tested on: A498 renal
ACHN renal = tested on: ACHN renal
CAKI-1 renal = tested on: CAKI-1 renal
OVCAR-4 ovarian = tested on: OVCAR-4 ovarian
SK-MEL-2 melanoma = tested on: SK-MEL-2 melanoma
U251 CNS = tested on: U251 CNS
SK-MEL-28 melanoma = tested on: SK-MEL-28 melanoma
UO-31 renal = tested on: UO-31 renal
HCT-116 colon = tested on: HCT-116 colon
MDA-N = tested on: MDA-N
SF-295 CNS = tested on: SF-295 CNS
HCT-15 colon = tested on: HCT-15 colon
RXF 393 renal = tested on: RXF 393 renal
SNB-75 CNS = tested on: SNB-75 CNS
EKVX NSCLC = tested on: EKVX NSCLC
T-47D breast = tested on: T-47D breast
SN12C renal = tested on: SN12C renal
NCI-H460 lung = tested on: NCI-H460 lung
HS 578T breast = tested on: HS 578T breast
COLO 205 colon = tested on: COLO 205 colon
SK-OV-3 ovarian = tested on: SK-OV-3 ovarian
A549 NSCLC = tested on: A549 NSCLC
SK-MEL-5 melanoma = tested on: SK-MEL-5 melanoma
SR leukemia = tested on: SR leukemia
TK-10 renal = tested on: TK-10 renal
RPMI-8226 leukemia = tested on: RPMI-8226 leukemia
LOX IMVI melanoma = tested on: LOX IMVI melanoma
HL-60(TB) leukemia = tested on: HL-60(TB) leukemia
DU-145 prostate = tested on: DU-145 prostate
NCI-H522 lung = tested on: NCI-H522 lung
HOP-92 NSCLC = tested on: HOP-92 NSCLC

COc1cc(/C=N/n2c(Cc3ccc(Cl)cc3)n[nH]c2=O)cc(OC)c1OC
TGI (SW-620 colon): > 100 µM
TGI (MDA-MB-435): > 100 µM
TGI (KM12 colon): > 100 µM
TGI (SF-539 CNS): > 100 µM
TGI (MDA-MB-231 breast): > 100 µM
TGI (OVCAR-3 ovarian): > 100 µM
TGI (HOP-62 NSCLC): > 100 µM
TGI (OVCAR-8 ovarian): > 100 µM
TGI (MOLT-4 leukemia): > 100 µM
TGI (PC-3 prostate): > 100 µM
TGI (UACC-62 melanoma): > 100 µM
TGI (NCI-H226 lung): > 100 µM
TGI (HCC-2998 colon): > 100 µM
TGI (786-0 renal): > 100 µM
TGI (MALME-3M melanoma): > 100 µM
TGI (NCI/ADR-RES ovarian): > 100 µM
TGI (K-562 leukemia): > 100 µM
TGI (MCF7 breast): > 100 µM
TGI (UACC-257 melanoma): > 100 µM
TGI (SF-268 CNS): > 100 µM
TGI (NCI-H23 lung): > 100 µM
TGI (SNB-19 CNS): > 100 µM
TGI (CCRF-CEM leukemia): > 100 µM
TGI (OVCAR-5 ovarian): > 100 µM
TGI (M14 melanoma): > 100 µM
TGI (HT29 colon): > 100 µM
TGI (BT-549 breast): > 100 µM
TGI (A498 renal): > 100 µM
TGI (ACHN renal): > 100 µM
TGI (CAKI-1 renal): > 100 µM
TGI (OVCAR-4 ovarian): > 100 µM
TGI (SK-MEL-2 melanoma): > 100 µM
TGI (U251 CNS): > 100 µM
TGI (SK-MEL-28 melanoma): > 100 µM
TGI (UO-31 renal): > 100 µM
TGI (HCT-116 colon): > 100 µM
TGI (MDA-N): > 100 µM
TGI (SF-295 CNS): > 100 µM
TGI (HCT-15 colon): > 100 µM
TGI (RXF 393 renal): > 100 µM
TGI (SNB-75 CNS): > 100 µM
TGI (EKVX NSCLC): > 100 µM
TGI (T-47D breast): > 100 µM
TGI (SN12C renal): > 100 µM
TGI (NCI-H460 lung): > 100 µM
TGI (HS 578T breast): 27.2 µM
TGI (COLO 205 colon): > 100 µM
TGI (SK-OV-3 ovarian): > 100 µM
TGI (A549 NSCLC): > 100 µM

Cn1ccc(C(=O)N2CCSC2=S)c(OCc2ccccc2)c1=O
TGI (SW-620 colon): > 100 µM
TGI (MDA-MB-435): > 100 µM
TGI (SK-MEL-5 melanoma): > 100 µM
TGI (KM12 colon): > 100 µM
TGI (SR leukemia): 93.6 µM
TGI (TK-10 renal): > 100 µM
TGI (MDA-MB-231 breast): > 100 µM
TGI (RPMI-8226 leukemia): > 100 µM
TGI (OVCAR-8 ovarian): > 100 µM
TGI (LOX IMVI melanoma): > 100 µM
TGI (PC-3 prostate): > 100 µM
TGI (UACC-62 melanoma): > 100 µM
TGI (NCI-H226 lung): > 100 µM
TGI (HCC-2998 colon): > 100 µM
TGI (786-0 renal): > 100 µM
TGI (MALME-3M melanoma): > 100 µM
TGI (NCI/ADR-RES ovarian): > 100 µM
TGI (K-562 leukemia): > 100 µM
TGI (UACC-257 melanoma): > 100 µM
TGI (SF-268 CNS): > 100 µM
TGI (NCI-H23 lung): > 100 µM
TGI (SNB-19 CNS): > 100 µM
TGI (CCRF-CEM leukemia): > 100 µM
TGI (HT29 colon): > 100 µM
TGI (BT-549 breast): > 100 µM
TGI (HL-60(TB) leukemia): > 100 µM
TGI (A498 renal): > 100 µM
TGI (ACHN renal): > 100 µM
TGI (CAKI-1 renal): > 100 µM
TGI (OVCAR-4 ovarian): > 100 µM
TGI (SK-MEL-2 melanoma): > 100 µM
TGI (U251 CNS): > 100 µM
TGI (SK-MEL-28 melanoma): > 100 µM
TGI (UO-31 renal): > 100 µM
TGI (HCT-116 colon): > 100 µM
TGI (MDA-N): > 100 µM
TGI (DU-145 prostate): > 100 µM
TGI (HCT-15 colon): > 100 µM
TGI (SNB-75 CNS): > 100 µM
TGI (T-47D breast): > 100 µM
TGI (SN12C renal): > 100 µM
TGI (NCI-H460 lung): > 100 µM
TGI (NCI-H522 lung): > 100 µM
TGI (HOP-92 NSCLC): > 100 µM
TGI (HS 578T breast): > 100 µM
TGI (COLO 205 colon): > 100 µM
TGI (A549 NSCLC): > 100 µM
